Measurements from PubChem BioAssay (NCI).
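Method: 48-hour compound exposure of cells in 96-well plates, five concentrations, linear interpolation of endpoints. Abbreviation: GI50, concentration required for 50% inhibition of growth. TGI is the concentration that stops growth completely.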

Tests used:
Assay in all cases: NCI tumour cell line growth inhibition, 48 h
KM12 colon = test system: KM12 colon
SK-MEL-2 melanoma = test system: SK-MEL-2 melanoma
SR leukemia = test system: SR leukemia
HL-60(TB) leukemia = test system: HL-60(TB) leukemia
SK-MEL-28 melanoma = test system: SK-MEL-28 melanoma
M14 melanoma = test system: M14 melanoma
RXF 393 renal = test system: RXF 393 renal
SNB-75 CNS = test system: SNB-75 CNS
SW-620 colon = test system: SW-620 colon
SF-295 CNS = test system: SF-295 CNS

SMILES | GI50 (KM12 colon) | TGI (KM12 colon) | GI50 (SK-MEL-2 melanoma) | TGI (SK-MEL-2 melanoma) | GI50 (SR leukemia) | TGI (SR leukemia) | GI50 (HL-60(TB) leukemia) | TGI (HL-60(TB) leukemia) | GI50 (SK-MEL-28 melanoma) | TGI (SK-MEL-28 melanoma) | GI50 (M14 melanoma) | TGI (M14 melanoma) | GI50 (RXF 393 renal) | TGI (RXF 393 renal) | GI50 (SNB-75 CNS) | TGI (SNB-75 CNS) | GI50 (SW-620 colon) | TGI (SW-620 colon) | GI50 (SF-295 CNS) | TGI (SF-295 CNS)
CC[C@@]1(O)C(=O)NCc2c1cc1n(c2=O)Cc2cc3ccccc3nc2-1 | > 50.6 µM | > 100 µM | > 100 µM | > 100 µM | 0.123 µM | 0.503 µM | 1.33 µM | > 24 µM | > 53.7 µM | > 100 µM | 1.49 µM | 15.1 µM | 6.11 µM | > 80.6 µM | 4.22 µM | > 28.5 µM | 3.39 µM | > 100 µM | 0.575 µM | 13.2 µM
O=C(CC(=O)N1N=C(c2ccccc2)C(N=Nc2ccc(C(=O)O)cc2)C1=O)Nc1ccc(F)cc1 (centres undefined) |  |  |  | 41.8 µM |  |  |  | 42.9 µM |  | > 100 µM |  | > 100 µM |  | 25.3 µM |  |  |  | > 100 µM |  | > 100 µM
CC#C[C@@]1(O)CCCC[C@@H]1O |  | > 100 µM |  | > 100 µM |  |  |  | > 100 µM |  | > 100 µM |  | > 100 µM |  | > 100 µM |  | > 100 µM |  | > 100 µM |  | > 100 µM
COc1ccccc1/C=C\c1cnnc2ccccc12 |  | > 10 µM |  | > 10 µM |  |  |  | > 10 µM |  | > 10 µM |  | > 10 µM |  | > 10 µM |  | > 10 µM |  | > 10 µM |  | > 10 µM
Cc1cc(NS(=O)(=O)c2ccc(Nc3c4ccccc4nc4c(C(=O)Nc5ccc(S(=O)(=O)N=C(N)N)cc5)cccc34)cc2)no1 |  | > 100 µM |  | > 100 µM |  |  |  |  |  | > 100 µM |  | > 100 µM |  | > 100 µM |  | > 100 µM |  | > 100 µM |  | > 100 µM
O=c1[nH]cc(CS(=O)(=O)Cc2c[nH]c(=O)[nH]c2=O)c(=O)[nH]1 |  | > 100 µM |  | > 100 µM |  | > 100 µM |  |  |  | > 100 µM |  | > 100 µM |  | > 100 µM |  | > 100 µM |  | > 100 µM |  | > 100 µM
COC(=O)/C=C/C(=O)C1C(C(=O)OC)C2(C(=O)OC)CCC1(C(=O)OC)N2 (centres undefined) |  | > 100 µM |  | > 100 µM |  | > 100 µM |  | > 100 µM |  | > 100 µM |  | > 100 µM |  | > 100 µM |  |  |  |  |  | > 100 µM
Cc1cc(C)cc(-n2c3nc(=O)n(C)c(=O)c-3nc3ccccc32)c1 |  | > 100 µM |  | 63.5 µM |  |  |  |  |  |  |  | 77.4 µM |  | > 100 µM |  | > 100 µM |  | 40.7 µM |  | > 100 µM
COC(=O)C[CH](C(=O)OC)[Ge]([CH3])([CH3])[S]c1ccccc1 (centres undefined) | 17 µM | 46.2 µM | 16.2 µM | > 100 µM |  |  | 3 µM | 17.5 µM | 23.3 µM | 65.7 µM | 21.5 µM | 57.5 µM | 37.9 µM | 55.9 µM | 22.1 µM | 72.2 µM | 13 µM | 26.8 µM | 12.6 µM | 40 µM
C=C(CN1CCN(c2ccccc2OC)CC1)c1ccc(C(=O)Nc2ccccc2N)cc1 | 3.32 µM | 11.6 µM | 12.6 µM | 37.9 µM |  |  | 1.81 µM | > 50 µM | 2.14 µM | > 50 µM | 12.1 µM | > 50 µM |  |  |  |  | 2.1 µM | > 50 µM | 4.11 µM | 15.4 µM
CCOC1OCCCC1Br (centres undefined) |  | > 100 µM |  | > 100 µM |  | > 100 µM |  |  |  | > 100 µM |  | > 100 µM |  | > 100 µM |  | > 100 µM |  | > 100 µM |  | > 100 µM
CCN(CC)CCN1C(=O)c2c(c(C)c3c(oc4cc(O)ccc43)c2C)C1=O | 1.82 µM | 3.74 µM | 2.35 µM | 5.27 µM | 1.89 µM | > 100 µM |  |  | 1.58 µM | 3.03 µM | 1.81 µM | 3.63 µM | 1.33 µM | 2.69 µM | 1.44 µM | 2.8 µM |  |  | 1.56 µM | 2.98 µM
O=C(O)c1c(O)c2cc(Br)ccc2oc1=O |  |  |  | > 100 µM |  | > 100 µM |  | > 100 µM |  | > 100 µM |  | > 100 µM |  | > 100 µM |  | > 100 µM |  | > 100 µM |  | > 100 µM
CC(CN=C(CC(=O)c1ccc(Br)cc1)c1ccccc1)N=C(CC(=O)c1ccc(Br)cc1)c1ccccc1 (centres undefined) | 32.3 µM | > 100 µM | 3.48 µM | > 100 µM |  |  | 17.2 µM | 68 µM | > 100 µM | > 100 µM |  |  | 5.59 µM | > 100 µM | > 100 µM | > 100 µM | > 100 µM | > 100 µM | 29.2 µM | > 100 µM
Cn1cnc([N+](=O)[O-])c1Sc1ccccn1 |  | > 100 µM |  | > 100 µM |  | > 100 µM |  |  |  | > 100 µM |  | > 100 µM |  |  |  | > 100 µM |  | > 100 µM |  | > 100 µM
N#Cc1cccc(NC(=O)c2ccc(C(=O)O)c(C(=O)c3ccc(C(=O)O)c(C(=O)Nc4cccc(C#N)c4)c3)c2)c1 |  | > 100 µM |  | > 100 µM |  |  |  | > 100 µM |  |  |  | > 100 µM |  | > 100 µM |  | > 100 µM |  | > 100 µM |  | > 100 µM
COC(=O)c1c[nH]c(=O)[nH]c1=O |  | > 100 µM |  | > 100 µM |  | > 100 µM |  |  |  | > 100 µM |  | > 100 µM |  |  |  | > 100 µM |  | > 100 µM |  | > 100 µM
O=P(Oc1ccc(Cl)cc1)(Oc1ccc(Cl)cc1)N1CC1 |  | > 10 µM |  | > 10 µM |  | > 10 µM |  | > 10 µM |  | > 10 µM |  | > 10 µM |  |  |  | > 10 µM |  | > 10 µM |  | > 10 µM
C(=N\Nc1nnc2c(n1)[nH]c1ccccc12)/c1cccnc1 |  | > 100 µM |  | > 100 µM |  |  |  | > 100 µM |  | > 100 µM |  | 46.2 µM |  | > 100 µM |  | > 100 µM |  | > 100 µM |  | > 100 µM
O=C(/C=C/c1ccc(C(F)(F)F)cc1)c1ccc(Nc2nc(NCCO)nc(NCCO)n2)cc1 | 2.02 µM | 4.17 µM |  |  | 2.3 µM | 7.11 µM | 2.97 µM | 10.3 µM | 3.45 µM | 13 µM | 3.96 µM | 17.1 µM | 1.6 µM | 3.44 µM | 2.31 µM | 13.6 µM | 1.97 µM | 4.25 µM | 3.2 µM | 13 µM
